Data on three compounds can be found in article PMC7450057, “Enhancing intracellular accumulation and target engagement of PROTACs with reversible covalent chemistry” (Nature Communications, 2020).

SMILES strings stand for the structures. Values joined by “and” are separate entries in the source; they are usually repeats but may differ in a detail not shown here. Identical values can stand only once. Like-named read-outs stand apart in the source and are kept apart here.

The term IC50 denotes the concentration that gives 50% inhibition.

Data set [1] is described as follows: Permeability by lipid-PAMPA method (Pharmaron). It is filed as in vitro ADME. As to conditions: for recovery at 16 h, 10 μM: PAMPA. The protocol:
The permeability of compounds was measured using Lipid-PAMPA method by Pharmaron. Preparation of stock solutions: testosterone and methotrexate were used as control compounds in this assay. The stock solutions of positive controls were prepared in DMSO or acetonitrile at the concentration of 10 mM. Prepare a stock solution of compounds in DMSO at the concentration of 10 mM, and further dilute with PBS (pH 7.4). […]
Assay procedures: prepare a 1.8% solution (w/v) of lecithin in dodecane, and sonicate the mixture to ensure a complete dissolution. Carefully pipette 5 μL of the lecithin/dodecane mixture into each acceptor plate well (top compartment), avoiding pipette tip contact with the membrane. Immediately after the application of the artificial membrane (within 10 min), add 300 μL of PBS (pH 7.4) solution to each well of the acceptor plate. Add 300 μL of drug-containing solutions to each well of the donor plate (bottom compartment) in triplicate. Slowly and carefully place the acceptor plate into the donor plate, making sure the underside of the membrane is in contact with the drug-containing solutions in all wells. Replace the plate lid and incubate at 25 °C, 60 rpm for 16 h. After incubation, aliquots of 50 μL from each well of acceptor and donor plate are transferred into a 96-well plate. Add 450 μL of methanol (containing IS: 100 nM Alprazolam, 200 nM Caffeine, 100 nM Tolbutamide) into each well. Cover with plate lid. Vortex at 750 rpm for 100 s. Samples were centrifuged at 3220 × g for 20 min. Determine the compound concentrations by LC/MS/MS. The effective permeability (Pe), in units of centimeter per second, can be calculated using the following equation: LogPe=LogC×−Ln1−drugacceptor/drugequilibrium
Background: The PAMPA barrier holds no transporters, so it reflects passive diffusion.

Data set [2] deals with T1, BTK-NanoLuc fusion (Homo sapiens, UniProt Q06187).
T1 construct: host or cells: HEK 293T/17
The data set is described as follows: NanoBRET BTK in-cell target engagement assay. In kind it is cell-based. As to conditions: for NanoBRET(%): Figure 3d, triplicates. The protocol: The target engagement assay for BTK or CRBN was from Promega (BTK kit, Cat. No. N2500; CRBN kit, Cat. No. CS1810C136) and was performed according to the manufacture’s instruction with some modifications. Briefly, HEK 293/T17 cells (ATCC) were transiently transfected with BTK-NanoLuc® fusion vector or NanoLuc®-CRBN fusion vector (Promega) in 0.125 M CaCl2 and 1x HBS. Forty-eight hours after transfection, the cells were resuspended in Opti-MEM medium (Life Technologies, Cat. No. 11058021) at the density of 2 × 10^5 cells per mL and were plated into 96-well plates (Corning, Cat. No. CLS3600). Cells were incubated with 1.0 µM (BTK) or 0.5 µM (CRBN) NanoBRET™ Tracer and serially diluted unlabeled BTK PROTAC compounds (from 10 to 0.0032 µM, 5-fold dilution) for 2 h at 37 °С with 5% CO2 in an incubator. After 2 h incubation, the 3X Nano-Glo® Substrate with NanoLuc® extracellular inhibitor were added to cells and developed for 3 min at room temperature. BRET signals were collected using a BioTek SYNERGY H1 microplate reader equipped with a 450/80-nm BP filter for donor emission and a 610-nm LP filter for acceptor emission. BRET Ratio was calculated with the equation: [(Acceptor sample/Donor sample)–(Acceptor no tracer control/Donor no tracer control)] × 1000. The IC50 of the compound against its BTK or CRBN tracer was calculated using GraphPad Prism software.

The subject of data set [3] is Mino cells. The data set is described as follows: AlamarBlue cell viability assay, Mino. It is filed as cell-based. As to conditions: for Mino Cell Viability%: Figure 2f, 5 replicates. On the technique in general: Resazurin is reduced to fluorescent resorufin, in cell work by metabolically active cells.
Protocol: (§1) The IC50 was calculated using GraphPad Prism software with a four-parameter dose-response curve fit.
The test system of data set [4] is MOLM-14 cells. The data set is described as follows: AlamarBlue cell viability assay, MOLM-14. Conditions: for MOLM-14 Cell Viability%: Figure 2f, 5 replicates.
Protocol: as §1
The target of data set [5] is BTK (Mus musculus, UniProt P35991). The data set is described as follows: BTK degradation in mouse B-cell lymphoma cell line derived from Eu-Myc mice. In kind it is cell-based. Details: endogenous in cells; host or cells: B cell lymphoma cell line derived from Eu-Myc mice. Conditions: Supplementary Figure 10, replicates, DMSO about 100. The protocol:
MOLM-14 cell line was obtained from Dr. Conneely at Baylor College of Medicine, and the Mino cells were purchased from the American Type Culture Collection (ATCC, Cat. No. CRL-3000). Both cell lines were cultured in RPMI 1640 medium (Thermo Fisher Scientific, Cat. No. MT10040CV) supplemented with 10% fetal bovine serum (GE Healthcare, Cat. No. SH30071.03) and 1% Pen/Strep (Thermo Fisher Scientific, Cat. No. 15140163). The wild-type and C481S BTK XLA cell lines were gifts from Dr. Woyach at The Ohio State University and were cultured in RPMI 1640 medium with 15% fetal bovine serum, 1% Pen/Strep, and 1.0 µg/ml puromycin (Thermo Fisher Scientific, Cat. No. A1113803). HEK 293T/17 cells were purchased from ATCC (Cat. No. CRL-11268) were maintained in DMEM (Thermo Fisher Scientific, Cat. No. MT10013CV) with 10% fetal bovine serum and 1% Pen-Strep. The B cell lymphoma cell line derived from Eu-Myc mice was a gift from Dr. Yulin Li at Houston Methodist Research Institute and cultured in RPMI 1640 medium supplemented with 15% (v/v) fetal bovine serum (FBS), 100 U/mL penicillin, 100 μg/mL streptomycin, and 0.05 mM beta-mercaptoethanol and puromycin (1 μg/mL). Cells were grown at 37 °C with 5% CO2.
The collected cells and spleen tissues were lysed in RIPA lysis buffer (50 mM Tris-HCl, pH 7.4, 150 mM NaCl, 1% NP-40, 0.5% sodium deoxycholate, 0.1% SDS) supplemented with Halt™ Protease and Phosphatase Inhibitor Cocktail (Thermo Fisher Scientific, Cat. No. PI78440) immediately before use. Lysates were centrifuged at 15,000 × g for 10 min at 4 °C and the supernatant was quantified for total protein concentration using the Pierce BCA Protein Assay (Thermo Fisher Scientific, Cat. No. 23225). Thirty micrograms of protein were loaded onto sodium dodecyl sulfate−polyacrylamide gel for electrophoresis (Bio-Rad) and transferred onto PVDF membranes (Millipore, Cat. No. IPVH00010). […] Imaging was performed using the ECL Prime chemiluminescent western blot detection reagents (GE Healthcare, Cat. No. RPN2232) by visualization of the blots to X-Ray film or with an Imager (Kindle Biosciences, Cat. No. D1001). All western blots were subsequently processed and quantified with Imager software. Protein level was normalized to β-actin or GAPDH loading controls.

Data set [6] concerns the target BTK (Homo sapiens, UniProt Q06187). The data set is described as follows: BTK degradation in MOLM-14 cells (western blot). Details: endogenous in cells; host or cells: MOLM-14. It is filed as cell-based. Conditions: Figure 2b, duplicates.

BTK (Mus musculus, UniProt P35991), sequence (P35991 whole entry): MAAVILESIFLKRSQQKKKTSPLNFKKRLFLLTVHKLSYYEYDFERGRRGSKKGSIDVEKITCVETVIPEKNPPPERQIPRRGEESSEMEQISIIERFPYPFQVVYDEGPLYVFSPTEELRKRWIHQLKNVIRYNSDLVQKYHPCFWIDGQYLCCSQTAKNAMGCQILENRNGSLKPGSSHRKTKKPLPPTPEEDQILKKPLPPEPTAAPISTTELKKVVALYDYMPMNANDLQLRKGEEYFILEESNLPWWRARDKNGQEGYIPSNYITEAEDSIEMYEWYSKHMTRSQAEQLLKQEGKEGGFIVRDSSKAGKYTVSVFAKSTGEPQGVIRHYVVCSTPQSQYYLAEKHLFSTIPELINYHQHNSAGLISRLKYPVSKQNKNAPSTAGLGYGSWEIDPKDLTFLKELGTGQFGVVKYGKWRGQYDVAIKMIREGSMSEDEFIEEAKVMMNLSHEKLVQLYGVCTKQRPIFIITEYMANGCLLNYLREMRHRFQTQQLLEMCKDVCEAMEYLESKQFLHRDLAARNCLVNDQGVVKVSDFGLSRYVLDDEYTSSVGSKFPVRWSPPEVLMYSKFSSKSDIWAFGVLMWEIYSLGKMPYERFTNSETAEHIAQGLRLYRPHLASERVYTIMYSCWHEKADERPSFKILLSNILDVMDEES
T1 sequence (Q06187 whole entry, the tested form may be a part): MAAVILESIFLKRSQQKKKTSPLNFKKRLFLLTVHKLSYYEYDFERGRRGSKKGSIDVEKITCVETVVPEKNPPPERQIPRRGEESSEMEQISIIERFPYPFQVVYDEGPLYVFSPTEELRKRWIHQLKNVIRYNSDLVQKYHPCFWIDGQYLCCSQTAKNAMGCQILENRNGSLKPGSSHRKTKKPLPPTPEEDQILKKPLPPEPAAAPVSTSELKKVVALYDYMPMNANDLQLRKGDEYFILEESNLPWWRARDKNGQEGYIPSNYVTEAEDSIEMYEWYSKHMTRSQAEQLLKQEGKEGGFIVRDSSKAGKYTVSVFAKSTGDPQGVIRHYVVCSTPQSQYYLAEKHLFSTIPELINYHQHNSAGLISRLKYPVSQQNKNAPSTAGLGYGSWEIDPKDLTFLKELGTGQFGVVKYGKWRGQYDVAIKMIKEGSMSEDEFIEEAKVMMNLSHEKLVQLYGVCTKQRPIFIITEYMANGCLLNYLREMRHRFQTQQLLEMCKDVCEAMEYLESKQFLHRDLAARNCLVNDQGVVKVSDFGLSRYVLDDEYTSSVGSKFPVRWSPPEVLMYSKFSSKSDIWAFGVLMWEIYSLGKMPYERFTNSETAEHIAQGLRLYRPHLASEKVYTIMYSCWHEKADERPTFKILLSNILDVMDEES
BTK (Homo sapiens, UniProt Q06187), sequence (Q06187 whole entry): as the sequence (Q06187 whole entry, the tested form may be a part) above

Regarding `C[C@]12CC[C@H]3[C@@H](CCC4=CC(=O)CC[C@@]43C)[C@@H]1CC[C@@H]2O` [Testosterone, testosterone, reference compound], the recovery at 16 h, 10 μM was determined as 91.1% in data set [1] (Mean, read-out: Recovery%) and 88.7% in data set [1] (single replicates, read-out: Recovery%). Also, the Recovery% in data set [1] (single replicates) is 88.88% and 95.84%. For the same compound, the “-Log Pe” value in data set [1] (single replicates, 10 μM, PBS pH 7.4, 25 °C, 16 h, Pe in centimeter per second) was 4.51 and 4.29 and 4.30.

Consider `CN(Cc1cnc2nc(N)nc(N)c2n1)c1ccc(C(=O)N[C@@H](CCC(=O)O)C(=O)O)cc1` [Methotrexate, methotrexate, reference compound], for which, in data set [1] (Recovery%), the recovery at 16 h, 10 μM worked out at 105%.

On to `Nc1ncnc2c1c(-c1ccc(Oc3ccccc3)cc1)nn2C1CCN(CCOCCOCC(=O)Nc2ccc3c(c2)C(=O)N(C2CCC(=O)NC2=O)C3=O)CC1` (stereo not shown) [MT-802, reference compound], for which the “NanoBRET(%)” value in data set [2] (1.00E-05 M) was 8.881% and 7.144% and 4.414%; in data set [2] (1.60E-08 M), 91.6984% and 97.1324% and 98.4487%; in data set [2] (2.00E-06 M), 18.1369% and 17.2809% and 19.5819%; in data set [2] (3.20E-09 M), 100.618% and 96.0652% and 96.5159%; in data set [2] (4.00E-07 M), 66.8491% and 61.8713% and 67.4598%; in data set [2] (8.00E-08 M), 83.5249% and 103.088% and 96.5333%. In addition, the IC50 in data set [2] (HEK-293 cells, BTK tracer 1.0 µM, experiment of Fig. 3d, read-out: BTK target engagement IC50) amounted to 660 nM; in data set [3] (Homo sapiens, Mino cells, 72 h, Alamar Blue) it was 1000 nM; in data set [4] (Homo sapiens, MOLM-14, 72 h, read-out: Cell viability IC50, MOLM-14 cells, 72 h, Alamar Blue), 4700 nM. Further, the “Mino Cell Viability%” value in data set [3] (1.00E-06 M) is 55.7423% and 49.4302% and 55.3437% and 39.2835% and 54.1265%; in data set [3] (1.60E-09 M) it was 110.483% and 109.05% and 93.6147% and 92.6129% and 76.2619%; in data set [3] (2.00E-07 M) it was 89.5862% and 87.1949% and 82.8432% and 61.1711% and 66.0828%; in data set [3] (3.20E-10 M), 84.5559% and 99.9483% and 73.8491% and 92.4729% and 74.9908%; in data set [3] (4.00E-08 M) it was 100.53% and 96.2968% and 92.2144% and 82.8217% and 85.9885%; in data set [3] (5.00E-06 M), 34.2209% and 40.5007% and 48.9347% and 30.3001% and 41.1685%. Moreover, the “Mino Cell Viability%” value in data set [3] (8.00E-09 M) was 99.2266% and 99.1512% and 91.8158% and 60.6002% and 61.5373%. The “MOLM-14 Cell Viability%” value was 30.9193% and 24.2086% and 26.5576% and 19.8014% and 27.7094% in data set [4] (1.00E-05 M); 94.0978% and 96.8402% and 91.572% and 84.5934% and 78.4642% in data set [4] (1.60E-08 M); 75.5166% and 72.09% and 75.4424% and 57.762% and 72.8197% in data set [4] (2.00E-06 M); 96.9942% and 95.4205% and 85.785% and 84.5706% and 80.2089% in data set [4] (3.20E-09 M); 88.0029% and 82.2386% and 86.6288% and 76.8507% and 80.4769% in data set [4] (4.00E-07 M); 81.9593% and 80.8361% and 77.1985% and 75.6192% and 75.9328% in data set [4] (6.40E-10 M). The “MOLM-14 Cell Viability%” value in data set [4] (8.00E-08 M) was 97.8209% and 89.394% and 93.0772% and 82.672% and 84.7872%. The “BTK quantification (anti-BTK / anti-β-actin)” value in data set [5] (8 nM) was 79.5706 and 82.6481; in data set [5] (40 nM) it was 47.7374 and 48.0125; in data set [5] (200 nM) it was 22.5968 and 20.4165. For the same compound, the “Quantification anti-BTK / anti-β-actin (BTK level vs DMSO)” value in data set [6] (8 nM) was 79.5706 and 82.6481; in data set [6] (40 nM) it was 47.7374 and 48.0125; in data set [6] (200 nM), 22.5968 and 20.4165.
